The values below come from ChEMBL document CHEMBL4411271, “New Generation of Selective Androgen Receptor Degraders: Our Initial Design, Synthesis, and Biological Evaluation of New Compounds with Enzalutamide-Resistant Prostate Cancer Activity” (J Med Chem, 2019).

Structures are written as SMILES.

One data set concerns MR49F. Description: animal or person. It counts as functional. As to conditions: Homo sapiens, po, 336 h, read-out: TGI.
Another data set in a line: in vitro. Conditions: mouse, microsomes.
The conditions of data set [1]: mouse, microsomes, 50 µM.

Description for MR49F: Antitumor activity against human MR49F cells xenografted in NSG cells assessed as tumor growth inhibition at 100 mg/kg/day, po for 14 days and measured twice weekly relative to control
Description for in vitro: Half life in mouse liver microsomes at 50 uM in presence of cofactors for phase 1 and 2 metabolism

In the case of `C[C@](O)(Cn1ccc2cc(F)c(-c3ccccc3)cc21)C(=O)Nc1ccc(C#N)c(Cl)c1`, in the data set with MR49F, the inhibition in vivo at 100 mg/kg/day is 40 to 60%.

In the case of `C[C@](O)(Cn1ccc2c(F)cccc21)C(=O)Nc1ccc(C#N)c(Cl)c1`, the inhibition in vivo at 100 mg/kg/day with MR49F lay within 40 to 60%.

Compound `C[C@](O)(CN1CCc2cc(F)ccc21)C(=O)Nc1ccc(C#N)c(Cl)c1` yielded a half-life at 50 µM in “in vitro” of 9.16 min.

Take `C[C@](O)(COc1ccc(C#N)cc1)C(=O)Nc1ccc(C#N)c(C(F)(F)F)c1` [ENOBOSARM]: the CLH in data set [1] worked out at 1400 µL/min/mg.

The half-life is the time in which the quantity being followed falls by half. A high value points to slow decline.
